Measured values from the supplement of paper PMC11061612.

Experiments:
[1] = system: COLO-668 (Small Cell Lung Carcinoma); test: Bliss excess, mean over the matrix (fraction); higher = more synergy
Procedure, shortened: (§1)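 Bliss excess equals the observed combination effect minus the expected value EA + EB − EA·EB, where EA and EB are the effects of each agent alone. Combination Emax is the second-highest inhibition within the matrix. Inhibition was scaled from CellTiter-Glo 2.0 luminescence, with 0 set by vehicle wells and 1 by blank wells, after 72 hours of two-drug dosing of cells plated in 1536-well plates.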

[2] = system: SW872 (Other Solid Carcinomas); test: as above
Procedure, shortened: as §1

[3] = system: COLO-668 (Small Cell Lung Carcinoma); test: combination Emax (second highest fraction inhibited in the dose matrix, 72 h); higher = more inhibition; extreme values may be limits of the assay
Procedure, shortened: as §1

[4] = system: Ca-Ski (Cervical Carcinoma); test: as above
Procedure, shortened: as §1

[5] = system: DU-145 (Prostate Carcinoma); test: as above
Procedure, shortened: as §1

[6] = system: EFO-21 (Ovarian Carcinoma); test: as above
Procedure, shortened: as §1

[7] = system: EJM (Plasma Cell Myeloma); test: as above
Procedure, shortened: as §1

[8] = system: G-401 (Other Solid Carcinomas); test: as above
Procedure, shortened: as §1

[9] = system: HCC1500 (Breast Carcinoma); test: as above
Procedure, shortened: as §1

[10] = system: HCC1937 (Breast Carcinoma); test: as above
Procedure, shortened: as §1

[11] = system: NCI-H1092 (Small Cell Lung Carcinoma); test: as above
Procedure, shortened: as §1

[12] = system: NCI-H1355 (Lung Adenocarcinoma); test: as above
Procedure, shortened: as §1

[13] = system: NCI-H1838 (Lung Adenocarcinoma); test: as above
Procedure, shortened: as §1

[14] = system: NCI-H2122 (Lung Adenocarcinoma); test: as above
Procedure, shortened: as §1

[15] = system: NCI-H522 (Lung Adenocarcinoma); test: as above
Procedure, shortened: as §1

[16] = system: OE33 (Esophageal Adenocarcinoma); test: as above
Procedure, shortened: as §1

[17] = system: SK-LU-1 (Lung Adenocarcinoma); test: as above
Procedure, shortened: as §1

[18] = system: SK-N-AS (Neuroblastoma); test: as above
Procedure, shortened: as §1

[19] = system: SNU-387 (Hepatocellular Carcinoma); test: as above
Procedure, shortened: as §1

[20] = system: SW982 (Other Solid Carcinomas); test: as above
Procedure, shortened: as §1

| Structure (SMILES) | Bliss excess [1] | Bliss excess [2] | combination Emax [3] | combination Emax [4] | combination Emax [5] | combination Emax [6] | combination Emax [7] | combination Emax [8] | combination Emax [9] | combination Emax [10] | combination Emax [11] | combination Emax [12] | combination Emax [13] | combination Emax [14] | combination Emax [15] | combination Emax [16] | combination Emax [17] | combination Emax [18] | combination Emax [19] | combination Emax [20] |
| --- | --- | --- | --- | --- | --- | --- | --- | --- | --- | --- | --- | --- | --- | --- | --- | --- | --- | --- | --- | --- |
| Cc1c2c(nn1C)CSCc1cc(n(C)n1)CSc1cc(c3ccccc3c1)OCCCc1c(C(=O)O)n(C)c3c-2c(Cl)ccc13 [AZD5991] + C1CN(CCC1(C(=O)N[C@@H](CCO)C2=CC=C(C=C2)Cl)N)C3=NC=NC4=C3C=CN4 [Capivasertib] (first compound max 1 µM, 7x7, partner max 3 µM) | 0.0516 | 0.0057 | 0.303 | 0.609 | 0.187 | 0.179 | 0.977 | 0.56 | 0.377 | 0.456 | 0.534 | 0.227 | 0.306 | 0.608 | 0.507 | 0.112 | 0.303 | 0.692 | 0.345 | 0.192 |
| CC(=O)c1c(C)c2cnc(Nc3ccc(N4CCNCC4)cn3)nc2n(C2CCCC2)c1=O [Palbociclib] + Cn1cnc2c(F)c(Nc3ccc(Br)cc3Cl)c(C(=O)NOCCO)cc21 [Selumetinib] (first compound max 10 µM, 7x7, partner max 10 µM) | 0.0008 | -0.0263 | 0.363 | 0.301 | 0.12 | 0.245 | 0.182 | 0.859 | 0.193 | 0.214 | 0.11 | 0.325 | 0.321 | 0.954 | 0.127 | 0.259 | 0.362 | 0.577 | 0.221 | 0.579 |
| Cn1cnc2c(F)c(Nc3ccc(Br)cc3Cl)c(C(=O)NOCCO)cc21 [Selumetinib] + CCN(CCO)CCCOc1ccc2c(Nc3cc(CC(=O)Nc4cccc(F)c4)[nH]n3)ncnc2c1 [AZD2811] (first compound max 10 µM, 7x7, partner max 1 µM) | -0.0161 | -0.01 | 0.407 | 0.54 | 0.203 | 0.212 | 0.175 | 0.561 | 0.157 | 0.314 | 0.215 | 0.275 | 0.322 | 0.962 | 0.171 | 0.364 | 0.301 | 0.496 | 0.319 | 0.594 |
| CN(C)CCCOc1ccc(-c2ccc3ncc4c(c3c2)n(C2CCOCC2)c(=O)n4C)cn1 [AZD0156] + C[C@@H]1COCCN1C2=NC(=NC(=C2)C3(CC3)[S@](=N)(=O)C)C4=C5C=CNC5=NC=C4 [AZD6738] (first compound max 1 µM, 7x7, partner max 10 µM) | -0.017 | 0.0187 | 0.612 | 0.668 | 0.544 | 0.549 | 0.894 | 0.493 | 0.298 | 0.543 | 0.174 | 0.69 | 0.745 | 0.945 | 0.0837 | 0.788 | 0.474 | 0.805 | 0.553 | 0.723 |
| COc1nnc2ccc(N3CCC(c4ccc(OCCN5CCN(C)C(=O)[C@H]5C)cc4)CC3)nn12 [AZD5153] + CC1(C)CCC(CN2CCN(c3ccc(C(=O)NS(=O)(=O)c4ccc(NCC5CCOCC5)c([N+](=O)[O-])c4)c(Oc4cnc5[nH]ccc5c4)c3)CC2)=C(c2ccc(Cl)cc2)C1 [Venetoclax] (first compound max 1 µM, 7x7, partner max 1 µM) | 0.0229 | -0.051 | 0.811 | 0.616 | 0.288 | 0.425 | 0.543 | 0.821 | 0.755 | 0.344 | 0.478 | 0.327 | 0.35 | 0.78 | 0.415 | 0.19 | 0.358 | 0.415 | 0.434 | 0.767 |
| CCN(CCO)CCCOc1ccc2c(Nc3cc(CC(=O)Nc4cccc(F)c4)[nH]n3)ncnc2c1 [AZD2811] + C=CCn1c(=O)c2cnc(Nc3ccc(N4CCN(C)CC4)cc3)nc2n1-c1cccc(C(C)(C)O)n1 [AZD1775] (first compound max 1 µM, partner max 1 µM) | 0.0144 | 0.0203 | 0.42 | 0.697 | 0.251 | 0.472 | 0.875 | 0.566 | 0.227 | 0.471 | 0.259 | 0.568 | 0.483 | 0.897 | 0.218 | 0.467 | 0.416 | 0.728 | 0.575 | 0.742 |
| C[C@@H]1COCCN1c1cc(C2([S@](C)(=N)=O)CC2)nc(-c2ccnc3[nH]ccc23)n1 [AZD6738] + O=C(c1cc(Cc2n[nH]c(=O)c3ccccc23)ccc1F)N1CCN(C(=O)C2CC2)CC1 [Olaparib] (first compound max 10 µM, 7x7, partner max 10 µM) | 0.0193 | 0.0206 | 0.659 | 0.647 | 0.548 | 0.412 | 0.899 | 0.491 | 0.341 | 0.517 | 0.184 | 0.712 | 0.542 | 0.902 | 0.23 | 0.721 | 0.473 | 0.687 | 0.575 | 0.781 |
